Reference: ChEMBL document CHEMBL5247592, “Discovery of novel VEGFR-2-PROTAC degraders based on the localization of lysine residues via recruiting VHL for the treatment of gastric cancer” (Eur J Med Chem, 2022)
pEC50: −log10 of the molar value. Active and inactive are the calls of the source. No cut-off for these calls is given here.

Tests used:
[1] = biological target: T1, von Hippel-Lindau disease tumor suppressor/Vascular endothelial growth factor receptor 2 (Homo sapiens, UniProt P35968+P40337); experiment: PROTAC activity at VHL/VEGFR2 in human HGC-27 cells assessed as induction of VEGFR2 degradation at 1 uM measured after 24 hrs by Western blot analysis relative to control; type: cell-based
Target sequence in this assay (P35968 20-1356 limits assumed): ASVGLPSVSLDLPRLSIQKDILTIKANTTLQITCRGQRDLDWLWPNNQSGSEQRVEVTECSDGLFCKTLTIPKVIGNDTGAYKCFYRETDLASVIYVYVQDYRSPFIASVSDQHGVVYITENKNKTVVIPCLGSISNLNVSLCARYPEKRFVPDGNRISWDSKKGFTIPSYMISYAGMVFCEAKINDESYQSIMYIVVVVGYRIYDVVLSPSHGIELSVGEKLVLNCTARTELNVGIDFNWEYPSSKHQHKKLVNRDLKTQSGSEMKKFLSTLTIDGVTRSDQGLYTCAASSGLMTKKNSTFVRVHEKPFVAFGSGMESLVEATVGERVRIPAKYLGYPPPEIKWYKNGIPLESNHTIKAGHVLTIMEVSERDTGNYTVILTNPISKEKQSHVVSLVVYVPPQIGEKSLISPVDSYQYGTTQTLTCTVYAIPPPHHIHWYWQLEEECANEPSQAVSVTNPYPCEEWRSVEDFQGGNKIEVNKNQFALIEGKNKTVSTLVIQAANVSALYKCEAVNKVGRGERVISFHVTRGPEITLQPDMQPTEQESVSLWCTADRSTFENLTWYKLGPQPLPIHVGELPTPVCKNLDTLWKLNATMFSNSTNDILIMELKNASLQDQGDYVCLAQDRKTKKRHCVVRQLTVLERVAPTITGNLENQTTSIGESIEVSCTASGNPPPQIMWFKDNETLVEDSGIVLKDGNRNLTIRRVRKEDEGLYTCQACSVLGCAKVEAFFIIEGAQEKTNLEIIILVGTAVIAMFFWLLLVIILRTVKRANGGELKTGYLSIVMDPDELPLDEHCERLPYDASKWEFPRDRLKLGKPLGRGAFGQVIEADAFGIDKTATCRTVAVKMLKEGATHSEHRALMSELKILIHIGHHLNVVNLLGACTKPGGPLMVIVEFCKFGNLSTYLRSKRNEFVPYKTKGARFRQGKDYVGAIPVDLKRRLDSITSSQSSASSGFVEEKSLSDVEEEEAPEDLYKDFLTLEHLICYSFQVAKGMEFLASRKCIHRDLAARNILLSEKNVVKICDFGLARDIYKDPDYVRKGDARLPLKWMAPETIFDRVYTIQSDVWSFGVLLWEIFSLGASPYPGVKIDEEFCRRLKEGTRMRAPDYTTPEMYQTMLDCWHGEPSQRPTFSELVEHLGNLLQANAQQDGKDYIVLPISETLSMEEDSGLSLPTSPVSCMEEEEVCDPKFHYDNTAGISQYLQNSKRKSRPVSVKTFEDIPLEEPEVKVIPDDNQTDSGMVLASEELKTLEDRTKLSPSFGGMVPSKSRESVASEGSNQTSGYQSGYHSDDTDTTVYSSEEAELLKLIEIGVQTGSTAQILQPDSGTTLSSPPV
Target sequence in this assay (P40337 whole entry partner): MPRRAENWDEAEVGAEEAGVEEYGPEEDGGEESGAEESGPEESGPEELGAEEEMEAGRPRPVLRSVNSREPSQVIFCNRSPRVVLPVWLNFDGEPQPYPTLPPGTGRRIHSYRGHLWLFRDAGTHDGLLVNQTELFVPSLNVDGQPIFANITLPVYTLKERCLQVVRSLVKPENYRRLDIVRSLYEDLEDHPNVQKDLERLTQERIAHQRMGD

HGC-27 [2] = experiment: Induction of apoptosis in human HGC-27 cells assessed as necrotic cells at 1 uM incubated for 24 hrs by Annexin V-FITC/PI staining based analysis (reference value: 0.65 %); type: functional
[3] = biological target: T1, von Hippel-Lindau disease tumor suppressor/Vascular endothelial growth factor receptor 2; experiment: PROTAC activity at VHL/VEGFR2 in human HGC-27 cells assessed as reduction in VEGFR2 protein level incubated for 24 hrs by Western blot analysis; type: cell-based
Target sequence in this assay (P35968 whole entry): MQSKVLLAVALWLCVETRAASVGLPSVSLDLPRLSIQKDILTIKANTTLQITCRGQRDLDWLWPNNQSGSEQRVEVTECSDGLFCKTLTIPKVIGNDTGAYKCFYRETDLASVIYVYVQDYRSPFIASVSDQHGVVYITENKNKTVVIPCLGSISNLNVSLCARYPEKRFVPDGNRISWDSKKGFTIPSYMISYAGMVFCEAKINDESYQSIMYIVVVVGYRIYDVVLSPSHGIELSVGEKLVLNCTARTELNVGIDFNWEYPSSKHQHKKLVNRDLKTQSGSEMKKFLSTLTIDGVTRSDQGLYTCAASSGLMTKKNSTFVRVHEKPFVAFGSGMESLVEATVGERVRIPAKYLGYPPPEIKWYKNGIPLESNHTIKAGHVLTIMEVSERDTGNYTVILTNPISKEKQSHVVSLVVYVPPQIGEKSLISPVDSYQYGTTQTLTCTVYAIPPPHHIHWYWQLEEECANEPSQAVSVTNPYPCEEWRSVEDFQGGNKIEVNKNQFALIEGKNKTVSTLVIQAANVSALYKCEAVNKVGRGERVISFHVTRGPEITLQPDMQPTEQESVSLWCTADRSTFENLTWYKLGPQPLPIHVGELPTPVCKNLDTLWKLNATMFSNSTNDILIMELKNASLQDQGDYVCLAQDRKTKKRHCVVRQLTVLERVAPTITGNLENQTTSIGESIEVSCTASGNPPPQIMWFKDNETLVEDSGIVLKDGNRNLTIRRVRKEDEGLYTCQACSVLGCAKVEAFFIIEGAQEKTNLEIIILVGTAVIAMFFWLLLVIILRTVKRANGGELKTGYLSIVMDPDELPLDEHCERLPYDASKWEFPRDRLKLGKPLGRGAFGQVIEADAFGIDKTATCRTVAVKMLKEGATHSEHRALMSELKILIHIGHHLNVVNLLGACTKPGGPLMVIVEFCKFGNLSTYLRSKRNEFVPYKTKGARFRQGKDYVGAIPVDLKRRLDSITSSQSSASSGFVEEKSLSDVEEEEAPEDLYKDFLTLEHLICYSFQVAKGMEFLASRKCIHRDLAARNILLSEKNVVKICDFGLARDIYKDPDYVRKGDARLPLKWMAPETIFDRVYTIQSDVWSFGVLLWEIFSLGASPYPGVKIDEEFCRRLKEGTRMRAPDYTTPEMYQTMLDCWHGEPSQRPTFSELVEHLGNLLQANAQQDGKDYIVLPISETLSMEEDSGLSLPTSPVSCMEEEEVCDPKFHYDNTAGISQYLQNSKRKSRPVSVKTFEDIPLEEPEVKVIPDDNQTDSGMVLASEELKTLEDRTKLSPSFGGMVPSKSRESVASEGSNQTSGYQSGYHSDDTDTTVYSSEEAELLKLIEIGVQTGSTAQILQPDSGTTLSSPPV
Target sequence in this assay (P40337 whole entry): as the sequence (P40337 whole entry partner) above

HGC-27 [4] = experiment: Inhibition of cell migration in human HGC-27 cells assessed as suppression of cell migration at 1 uM incubated for 24 hrs by wound healing assay relative to control; type: functional
[5] = Cytotoxicity against HUVEC cells assessed as inhibition of cell growth incubated for 72 hrs by MTT assay; type: toxicity, cell-based; conditions: human
HGC-27 [6] = experiment: Induction of apoptosis in human HGC-27 cells assessed as viable cells at 3.3 uM incubated for 24 hrs by Annexin V-FITC/PI staining based analysis (reference value: 95.3%); type: functional; conditions: read-out: Activity
HGC-27 [7] = experiment: Induction of apoptosis in human HGC-27 cells assessed as early apoptotic cells at 0.33 uM incubated for 24 hrs by Annexin V-FITC/PI staining based analysis (reference value: 1.7 %); type: functional
HGC-27 [8] = experiment: Induction of cell cycle arrest in human HGC-27 cells assessed as S phase cells at 1 uM incubated for 24 hrs by PI staining based flow cytometric analysis (reference value: 26.4%); type: functional
HGC-27 [9] = experiment: Induction of cell cycle arrest in human HGC-27 cells assessed as S phase cells at 0.1 uM incubated for 24 hrs by PI staining based flow cytometric analysis (reference value: 26.4%); type: functional
HGC-27 [10] = experiment: Antiinvasive activity in human HGC-27 cells assessed as reduction in number of invasive cells at 0.1 uM incubated for 24 hrs by transwell invasion assay (reference value: 118); type: functional
[11] = biological target: T1, von Hippel-Lindau disease tumor suppressor/Vascular endothelial growth factor receptor 2; experiment: PROTAC activity at VHL/VEGFR2 in human HGC-27 cells assessed as induction of VEGFR2 degradation at 1 uM measured after 36 hrs by Western blot analysis relative to control; type: cell-based
Target sequence in this assay (P35968 20-1356 limits assumed): as the sequence (P35968 20-1356 limits assumed) above
Target sequence in this assay (P40337 whole entry partner): as the sequence (P40337 whole entry partner) above

[12] = biological target: T1, von Hippel-Lindau disease tumor suppressor/Vascular endothelial growth factor receptor 2; experiment: PROTAC activity at VHL/VEGFR2 in HUVEC cells assessed as reduction in VEGFR2 protein level at 10 uM incubated for 24 hrs by Western blot analysis; type: cell-based
Target sequence in this assay (P35968 20-1356 limits assumed): as the sequence (P35968 20-1356 limits assumed) above
Target sequence in this assay (P40337 whole entry partner): as the sequence (P40337 whole entry partner) above

[13] = biological target: T1, von Hippel-Lindau disease tumor suppressor/Vascular endothelial growth factor receptor 2; experiment: PROTAC activity at VHL/VEGFR2 in human HGC-27 cells assessed as reduction in relative VEGRF2 expression level at 1 uM preincubated with MG-132 for 2 hrs followed by compound addition and measured after 24 hrs by Western blot analysis; type: cell-based
Target sequence in this assay (P35968 20-1356 limits assumed): as the sequence (P35968 20-1356 limits assumed) above
Target sequence in this assay (P40337 whole entry partner): as the sequence (P40337 whole entry partner) above

HGC-27 [14] = experiment: Antiinvasive activity in human HGC-27 cells assessed as reduction in number of invasive cells at 3.33 uM incubated for 24 hrs by transwell invasion assay (reference value: 118); type: functional
HGC-27 [15] = experiment: Antiinvasive activity in human HGC-27 cells assessed as reduction in number of invasive cells at 0.033 uM incubated for 24 hrs by transwell invasion assay (reference value: 118); type: functional
[16] = biological target: T1, von Hippel-Lindau disease tumor suppressor/Vascular endothelial growth factor receptor 2; experiment: PROTAC activity at VHL/VEGFR2 in human HGC-27 cells assessed as residual activity by measuring VEGFR2 expression level at 1 uM incubated for 24 hrs followed by compound washout and measured after 4 hrs by Western blot analysis relative to control; type: cell-based
Target sequence in this assay (P35968 20-1356 limits assumed): as the sequence (P35968 20-1356 limits assumed) above
Target sequence in this assay (P40337 whole entry partner): as the sequence (P40337 whole entry partner) above

HGC-27 [17] = experiment: Induction of apoptosis in human HGC-27 cells assessed as viable cells at 0.033 uM incubated for 24 hrs by Annexin V-FITC/PI staining based analysis (reference value: 95.3%); type: functional; conditions: read-out: Activity
[18] = biological target: T1, von Hippel-Lindau disease tumor suppressor/Vascular endothelial growth factor receptor 2; experiment: PROTAC activity at VHL/VEGFR2 in HUVEC cells assessed as reduction in VEGFR2 protein level incubated for 24 hrs by Western blot analysis; type: cell-based
HGC-27 [19] = experiment: Induction of cell cycle arrest in human HGC-27 cells assessed as G2/M phase cells at 3.33 uM incubated for 24 hrs by PI staining based flow cytometric analysis (reference value: 13.3%); type: functional
[20] = biological target: T1, von Hippel-Lindau disease tumor suppressor/Vascular endothelial growth factor receptor 2; experiment: PROTAC activity at VHL/VEGFR2 in human HGC-27 cells assessed as reduction in VEGFR2 protein level by measuring maximal efficacy at 0.15 uM incubated for 24 hrs by Western blot analysis relative to control; type: cell-based
Target sequence in this assay (P35968 20-1356 limits assumed): as the sequence (P35968 20-1356 limits assumed) above
Target sequence in this assay (P40337 whole entry partner): as the sequence (P40337 whole entry partner) above

[21] = biological target: Vascular endothelial growth factor receptor 2 (Homo sapiens, UniProt P35968); experiment: Inhibition of VEGFR2 (unknown origin) at 1 uM by caliper mobility shift assay relative to control
Chain of Vascular endothelial growth factor receptor 2 (P35968 whole entry): as the sequence (P35968 whole entry) above

HGC-27 [22] = experiment: Induction of cell cycle arrest in human HGC-27 cells assessed as G2/M phase cells at 1 uM incubated for 24 hrs by PI staining based flow cytometric analysis (reference value: 13.3%); type: functional
HGC-27 [23] = experiment: Induction of apoptosis in human HGC-27 cells assessed as late apoptotic cells at 0.33 uM incubated for 24 hrs by Annexin V-FITC/PI staining based analysis (reference value: 3%); type: functional
[24] = biological target: T1, von Hippel-Lindau disease tumor suppressor/Vascular endothelial growth factor receptor 2; experiment: (§1) PROTAC activity at VHL/VEGFR2 in human HGC-27 cells assessed as induction of VEGRF2 protein degradation at 1 uM preincubated with VH032 for 2 hrs followed by compound addition and measured after 24 hrs by Western blot analysis; type: cell-based
HGC-27 [25] = experiment: Induction of apoptosis in human HGC-27 cells assessed as late apoptotic cells at 1 uM incubated for 24 hrs by Annexin V-FITC/PI staining based analysis (reference value: 3%); type: functional
[26] = Cytotoxicity against HEK293T cells assessed as inhibition of cell growth incubated for 72 hrs by MTT assay; type: toxicity, cell-based, HEK-293T; conditions: human
[27] = biological target: T1, von Hippel-Lindau disease tumor suppressor/Vascular endothelial growth factor receptor 2; experiment: PROTAC activity at VHL/VEGFR2 in human HGC-27 cells assessed as induction of VEGRF2 protein degradation at 1 uM preincubated with MG-132 for 2 hrs followed by compound addition and measured after 24 hrs by Western blot analysis; type: cell-based
[28] = biological target: T1, von Hippel-Lindau disease tumor suppressor/Vascular endothelial growth factor receptor 2; experiment: PROTAC activity at VHL/VEGFR2 in human HGC-27 cells assessed as […] at 1 uM measured upto 24 hrs in the presence of cycloheximide by Western blot analysis; type: cell-based
HGC-27 [29] = experiment: Induction of apoptosis in human HGC-27 cells assessed as late apoptotic cells at 0.033 uM incubated for 24 hrs by Annexin V-FITC/PI staining based analysis (reference value: 3%); type: functional
HGC-27 [30] = experiment: Induction of cell cycle arrest in human HGC-27 cells assessed as G0/G1 phase cells at 0.033 uM incubated for 24 hrs by PI staining based flow cytometric analysis (reference value: 47.4%); type: functional
HGC-27 [31] = experiment: Induction of cell cycle arrest in human HGC-27 cells assessed as S phase cells at 3.33 uM incubated for 24 hrs by PI staining based flow cytometric analysis (reference value: 26.4%); type: functional
HGC-27 [32] = experiment: Induction of apoptosis in human HGC-27 cells assessed as necrotic cells at 0.033 uM incubated for 24 hrs by Annexin V-FITC/PI staining based analysis (reference value: 0.65 %); type: functional
[33] = biological target: T1, von Hippel-Lindau disease tumor suppressor/Vascular endothelial growth factor receptor 2; experiment: as §1, with “4-Amino-N-(6-(1-(2-((4-methyl-3-(trifluoromethyl)phenyl)amino)-2-oxoethyl)-1H-pyrazol-4-y1)-1H-indazol-3-Abenzamide” for “VH032”; type: cell-based

- Activity [1]: 51.4%
- pEC50 [3]: 7.08
- Activity [11]: 60.6%
- Activity [12]: inactive
- Activity [13]: inactive
- Activity [16]: 32.8%
- Activity [18]: Dose-Dependent Effect
- pEC50 [18]: 6.29
- Emax [20]: 73.7%
- inhibition [21]: 97.5%
- Activity [24]: inactive
- Activity [27]: inactive
- Activity [28]: Active
- Activity [33]: inactive
Compound: Cc1ccc(NC(=O)Cn2cc(-c3ccc4c(NC(=O)c5ccc(NC(=O)CCCCCCCCC(=O)N[C@H](C(=O)N6C[C@H](O)C[C@H]6C(=O)NCc6ccc(-c7scnc7C)cc6)C(C)(C)C)cc5)n[nH]c4c3)cn2)cc1C(F)(F)F
- Activity (HGC-27 [2]): 0.64%
- inhibition at 1 µM (HGC-27 [4]): 21.2%
- IC50 at 72 h [5]: 7.07 µM
- viability at 3.3 µM (HGC-27 [6]): 54%
- Activity (HGC-27 [7]): 3.2%
- Activity (HGC-27 [8]): 28.5%
- Activity (HGC-27 [9]): 25.8%
- Activity (HGC-27 [10]): 100
- Activity (HGC-27 [14]): 4
- Activity (HGC-27 [15]): 116
- viability at 0.033 µM (HGC-27 [17]): 93%
- Activity (HGC-27 [19]): 56.8%
- Activity (HGC-27 [22]): 45.9%
- Activity (HGC-27 [23]): 6.7%
- Activity (HGC-27 [25]): 14.2%
- IC50 at 72 h [26]: 14.5 µM
- Activity (HGC-27 [29]): 3%
- Activity (HGC-27 [30]): 41.1%
- Activity (HGC-27 [31]): 21.2%
- Activity (HGC-27 [32]): 0.32%
